The values that follow come from patent US7795294B2, “Tetrahydro-2H-indazole pyrazole cannabinoid modulators” (Janssen Pharmaceutica N.V., priority 2006, dated 2010).

One assay addresses T1, human CB1 receptor (Homo sapiens, UniProt P21554).
T1 construct: expressed in transfected cells; host or cells: SK-N-MC cells, stably transfected with pcDNA3 CB-1 (human); semi-purified membrane pellet
In words: Binding assay for CB1 agonists or inverse agonists, [3H]-CP-55,940 displacement on membranes of transfected SK-N-MC cells. On the procedure: (§1) The human CB1 and CB2 receptors were stably expressed in SK-N-MC cells transfected with pcDNA3 CB-1 (human) or pcDNA3 CB-2 (human). The cells were grown in T-180 cell culture flasks under standard cell culture conditions at 37° C. in a 5% CO2 atmosphere. The cells were harvested by trysinization and homogenized in a homogenization buffer (10 mM Tris, 0.2 mM MgCl2, 5 mM KCl, with protease inhibitors aprotinin, leupeptin, pepstatin A and bacitracin) and centrifuged (2000 g). The supernatant was then centrifuged in 2M sucrose (31,300 g) to produce a semi-purified membrane pellet. The pellet was resuspended in homogenization and stored at −80° C.
(§2) On the day of the assay, the pellet was thawed on ice and diluted in assay buffer (50 mM Tris-HCl, 5 mM MgCl2, 2.5 mM EDTA, 0.5 mg/mL fatty acid free bovine serum albumin, pH 7.5). […] The plate was covered and incubated for 90 minutes at 30° C. The contents were then aspirated onto a Packard Unifilter GF/C filter bottom plate prewet with 0.5% polyethyleneimine. The wells of the polypropylene plate were rinsed and aspirated seven times with a 0.9% saline-0.5% Tween 20 solution. The Unifilter plate was dried, a scintillation cocktail was added to each well and the counts representing binding were quantitated in a TopCount scintillation counter.
(§3) For compounds tested, an IC50 binding value was obtained from percent inhibition studies in which various test concentrations were used. The binding value was calculated by linear regression. An average value is shown for those compounds where two or more IC50 values were obtained.
(§4) An average value is shown for those compounds where two or more percent inhibition values were obtained.

The target of the next assay is T2, human CB2 receptor (Homo sapiens, UniProt P34972).
T2 construct: expressed in transfected cells; host or cells: SK-N-MC cells, stably transfected with pcDNA3 CB-2 (human); semi-purified membrane pellet
In words: Binding assay for CB2 agonists or inverse agonists, [3H]-CP-55,940 displacement on membranes of transfected SK-N-MC cells. As to conditions: for inhibition at 0.2 µM: read-out: Cannabinoid CB2 Receptor Binding percent inhibition. Here is the method:
as §1, §2, §3, §4

T2 sequence (P34972 whole entry): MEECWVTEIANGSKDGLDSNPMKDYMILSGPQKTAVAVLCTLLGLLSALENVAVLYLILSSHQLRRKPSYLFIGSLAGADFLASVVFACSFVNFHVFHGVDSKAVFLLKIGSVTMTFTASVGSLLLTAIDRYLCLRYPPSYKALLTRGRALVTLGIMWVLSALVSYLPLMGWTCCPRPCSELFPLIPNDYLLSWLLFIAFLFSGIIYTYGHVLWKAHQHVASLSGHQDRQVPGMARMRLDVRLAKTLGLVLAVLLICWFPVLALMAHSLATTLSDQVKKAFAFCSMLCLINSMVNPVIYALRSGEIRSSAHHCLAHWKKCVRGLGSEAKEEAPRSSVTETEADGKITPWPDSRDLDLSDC
T1 sequence (P21554 whole entry): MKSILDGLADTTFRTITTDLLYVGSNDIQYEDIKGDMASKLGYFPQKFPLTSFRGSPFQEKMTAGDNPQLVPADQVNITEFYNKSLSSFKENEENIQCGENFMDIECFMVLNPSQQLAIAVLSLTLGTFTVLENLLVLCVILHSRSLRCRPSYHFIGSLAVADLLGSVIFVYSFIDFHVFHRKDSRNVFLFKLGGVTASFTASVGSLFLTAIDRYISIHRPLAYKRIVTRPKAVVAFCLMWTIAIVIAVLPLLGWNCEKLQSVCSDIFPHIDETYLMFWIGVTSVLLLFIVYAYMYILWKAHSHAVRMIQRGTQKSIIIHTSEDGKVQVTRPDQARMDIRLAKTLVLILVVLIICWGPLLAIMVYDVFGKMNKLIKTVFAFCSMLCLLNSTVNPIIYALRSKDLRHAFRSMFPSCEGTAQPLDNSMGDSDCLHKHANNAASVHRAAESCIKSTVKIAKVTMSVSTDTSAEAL

Regarding `C[C@@H](NC(=O)[C@H]1CCCc2c1nn(-c1ccc(Cl)cc1Cl)c2-c1ccc(Br)s1)C1CCCCC1` [Cpd 54, (7S)-3-(5-bromo-thiophen-2-yl)-2-(2,4-dichloro-phenyl)-4,5,6,7-tetrahydro-2H-indazole-7-carboxylic acid [(1R)-1-cyclohexyl-ethyl]-amide], the inhibition at 0.2 µM on human CB1 receptor (read-out: Cannabinoid CB1 Receptor Binding percent inhibition) turned out to be 35%; on human CB2 receptor it was 12%.
On human CB1 receptor, `C[C@@H](NC(=O)[C@@H]1CCCc2c1nn(-c1ccc(Cl)cc1Cl)c2-c1ccc(Br)s1)C1CCCCC1` [Cpd 55, (7R)-3-(5-bromo-thiophen-2-yl)-2-(2,4-dichloro-phenyl)-4,5,6,7-tetrahydro-2H-indazole-7-carboxylic acid [(1R)-1-cyclohexyl-ethyl]-amide] registered an IC50 of 3 nM. On human CB2 receptor, the inhibition at 0.2 µM turned out to be 27%.
With `O=C(N[C@H](CO)c1ccccc1)[C@H]1CCCc2c1nn(-c1ccc(Cl)cc1Cl)c2-c1ccc(Br)s1` [Cpd 56, (7S)-3-(5-bromo-thiophen-2-yl)-2-(2,4-dichloro-phenyl)-4,5,6,7-tetrahydro-2H-indazole-7-carboxylic acid [(1S)-2-hydroxy-1-phenyl-ethyl]-amide], the half-inhibitory concentration (IC50) on human CB1 receptor was determined as 46 nM; at human CB2 receptor, 300 nM.
Turning to `O=C(N[C@H](CO)c1ccccc1)[C@@H]1CCCc2c1nn(-c1ccc(Cl)cc1Cl)c2-c1ccc(Br)s1` [Cpd 57, (7R)-3-(5-bromo-thiophen-2-yl)-2-(2,4-dichloro-phenyl)-4,5,6,7-tetrahydro-2H-indazole-7-carboxylic acid [(1S)-2-hydroxy-1-phenyl-ethyl]-amide], the IC50 on human CB1 receptor and on human CB2 receptor was 300 nM in each case.

In general, inhibition refers to the drop in the measured response relative to a control, in per cent. What is called IC50 is the concentration at which inhibition is half-maximal. A higher IC50 goes with weaker potency in that assay.
